Among the data in patent publication US7704976B2, “Use of N-acetyl-D-glucosamine for preparing medicines for urogenital tract infection's treatment and prevention” (Third Military Medical University, Chinese People's …, priority 2002, dated 2010) are growth of lactobacillus values, retold here.

The subject of the assay is lactobacillus. Kind of assay: Liquid culture of lactobacillus. The assay is classed as cell-based.

For the compound `CC(=O)N[C@H]1C(O)O[C@H](CO)[C@@H](O)[C@@H]1O` (stereo partly drawn) [N-acetyl-D-glucosamine], the growth of lactobacillus entry is on record as “could promote the growth of lactobacillus”.
